From US8816135B2, “Trisphenol compound” (Honshu Chemical Industry Co., Ltd., priority 2009, dated 2014)

Tests used:
[1] = Measurement of glass transition temperature by differential scanning calorimeter; assay type: physicochemical; conditions: DSC, melted compound cooled and heated again, 10.0° C./min.
Protocol: Each compound was heated to a temperature 20° C. higher than the melting point of the compound in crystal form using a differential scanning calorimeter, and the melted compound was cooled and then heated again to measure the glass transition point. The measurement conditions were 40° C. as the temperature at which to start measurement, the melting point+20° C. as the temperature at which to end measurement, and 10.0° C./min. as the rate of heating.

[2] = Measurement of solubility in solvent (propyleneglycolmonomethylether acetate); conditions: 28° C., largest amount that dissolved completely, added in 1 g steps to 10 g of solvent
Protocol: As for solubility, 10 g of propyleneglycolmonomethylether acetate was put in a container and 1 g of trisphenol compound was added while keeping the temperature at 28° C., and the mixture was agitated for 10 minutes to check for complete dissolution of the compound. […] The solubility (amount in grams per 100 g of solvent) was calculated from the largest amount of compound in grams that dissolved completely.

melting point [°C] | Structure (SMILES) | Glass transition temperature [1] [°C] | Solubility [2]
 | CC(C)(c1ccc(O)cc1)c1ccc(C(C)(c2ccc(O)cc2)c2ccc(O)cc2)cc1 [Comparative Example, 1-[α-methyl-α-(4-hydroxyphenyl)ethyl]-4-[α,α-bis(4-hydroxyphenyl)ethyl]benzene, reference compound] | 96 | 
231 | Cc1cc(C(C)(c2ccc(-c3ccc(O)cc3)cc2)c2cc(C)c(O)c(C)c2)cc(C)c1O [Example 3, 1-[4-(4-hydroxyphenyl)phenyl]-1,1-bis(4-hydroxy-3,5-dimethylphenyl)ethane] | 104 | 10 g/100 g of propyleneglycolmonomethylether acetate
198 | CC(c1ccc(O)cc1)(c1ccc(O)cc1)c1ccc(-c2ccc(O)cc2)cc1 [Example 1, 1-[4-(4-hydroxyphenyl)phenyl]-1,1-bis(4-hydroxyphenyl)ethane] |  | 40 g/100 g of propyleneglycolmonomethylether acetate
